In publication PMC6522510 (Nature Communications, 2019):
pEC50, pIC50: −log10 of the molar value. Like-named read-outs stand apart in the source and are kept apart here.

Columns and labels:
[1] = tested on: AML cell lines; assay: Intracellular drug and phosphorylated metabolites by HPLC with liquid scintillation counting; conditions: 2 h, 1 µM, all cell lines evaluated
[2] = tested on: MOLM-13; assay: Secondary dose-response HTS, Cell Titer Glo; assay type: cell-based, human; conditions: MOLM-13; for pEC50: Homo sapiens
[3] = tested on: MV4-11; assay: Secondary dose-response HTS, Cell Titer Glo; assay type: cell-based, human; conditions: MV4-11; for pEC50: Homo sapiens
[4] = tested on: CHRF288-11; assay: Secondary dose-response HTS, Cell Titer Glo; assay type: cell-based, human; conditions: for pEC50: Homo sapiens
[5] = tested on: CMK; assay: Secondary dose-response HTS, Cell Titer Glo; assay type: cell-based, human; conditions: Homo sapiens, CMK
[6] = tested on: CMS; assay: Secondary dose-response HTS, Cell Titer Glo; assay type: cell-based, human; conditions: Homo sapiens
[7] = tested on: M07e; assay: Secondary dose-response HTS, Cell Titer Glo; assay type: cell-based, human; conditions: Homo sapiens, M-07e
[8] = tested on: ML2; assay: Secondary dose-response HTS, Cell Titer Glo; assay type: cell-based, human; conditions: Homo sapiens, ML-2
[9] = tested on: U937; assay: Secondary dose-response HTS, Cell Titer Glo; assay type: cell-based, human; conditions: Homo sapiens, U-937
[10] = tested on: CHRF288-11; assay type: cell-based; conditions: Homo sapiens; 72 h, Cell Titer Glo; read-out: IC50 CHRF288-11
[11] = tested on: CMS; assay type: cell-based; conditions: Homo sapiens, 72 h, read-out: IC50 CMS
[12] = tested on: ML-2; assay type: cell-based; conditions: Homo sapiens, 72 h, Cell Titer Glo
[13] = tested on: MOLM-13; assay type: cell-based; conditions: Homo sapiens, 72 h, Cell Titer Glo
[14] = tested on: MV4-11; assay type: cell-based; conditions: Homo sapiens, 72 h, Cell Titer Glo
[15] = tested on: THP-1; assay type: cell-based; conditions: Homo sapiens, 72 h, Cell Titer Glo
[16] = tested on: U937; assay type: cell-based; conditions: Homo sapiens, U-937; 72 h, Cell Titer Glo
[17] = tested on: AMKL primary AML blast samples; assay: Ex vivo drug treatment of primary AML blasts on mesenchymal stromal cells; assay type: cell-based; conditions: Homo sapiens; primary blasts on MSC, 96 h
[18] = tested on: CHRF288-11-luciferase/YFP+ xenograft; assay: In vivo efficacy, survival; set-up: species or system NSG mice
[19] = tested on: AMKL patient-derived xenograft; assay: In vivo efficacy, survival; set-up: species or system NSG-SGM3 mice; conditions: AMKL PDX, i.p.
[20] = tested on: ML-2-luciferase/YFP+ xenograft; assay: In vivo efficacy, survival; set-up: species or system NSG mice; conditions: ML-2 xenograft, i.p.
[21] = tested on: Mll-PTD/wt:Flt3ITD/ITD primary transplants; assay: In vivo efficacy, survival; set-up: species or system mice
[22] = In vivo tolerability / maximum tolerated dose; set-up: species or system mice; conditions: multiple doses, intermittent every 3 or 4-day schedule
Description: Next, we sought to compare the in vivo efficacy of gemcitabine and cabazitaxel to the standard of care, cytarabine. Due to limitations with tolerability, we have previously treated our AML xenograft models with low-dose cytarabine[13],[31]. […] Tolerability studies of gemcitabine at the same dose and schedule was not tolerated. […] Similarly, we performed tolerability of cabazitaxel using multiple doses on an intermittent every 3 or 4-day schedule; the only tolerable dose was 5 mg/kg.
All animal studies were performed in accordance with Animal Care and Use Programs under protocols approved by the Institutional Animal Care and Use Committee at OSU. We have complied with the relevant ethical considerations for animal research overseen by this committee. Mice were housed in a barrier facility. Non-tumor bearing Ly5.2 C57Bl/6 (BoyJ) mice were treated with 100, 120, or 140 mg kg^−1 gemcitabine on an intermittent schedule every 3 days for 3 weeks; 3 or 6 mg kg^−1 doses were used to evaluate daily for 5 days schedule. All doses were administered by intraperitoneal injection; tolerability was assessed by daily weights and observation of changes in body condition.
Supplementary Figure 12. Establish maximum tolerated dose of gemcitabine. Non-tumor bearing female BoyJ mice were treated on an intermittent schedule every 3 days for 3 weeks with 100, 120, or 140 m gkg-1 gemcitabine (Gem ) or treated on a daily schedule once a day for 5 days with 3 or 6 m gkg-1 Gem. Daily weight of treated mice; data reported as a percent weight loss from day 0. Arrow indicate treatment days.

[23] = tested on: CBFA2T3-GLIS2/JAK2V617F-induced AMKL model; assay: In vivo efficacy, survival; set-up: species or system mice; conditions: CBFA2T3-GLIS2/JAK2V617F-Luc+ quaternary transplants, i.p.
[24] = tested on: Mll-PTD/wt:Flt3ITD/ITD secondary transplants; assay: In vivo efficacy, survival; set-up: species or system mice; conditions: 100 mg kg−1 daily x 5 days, i.p.
[25] = tested on: AML cell lines; conditions: human, 5 min
[26] = set-up: method as in Wang et al., Biol Blood Marrow Transplant 2014 and others; conditions: biphasic; ref Wang et al., Biol Blood Marrow Transplant 2014 and others; cited from earlier work
[27] = tested on: M07e; assay: cells; set-up: species or system AML cell lines (8); Secondary HTS, 10-point dose-response in triplicate, Cell Titer Glo viability, four-parameter fit EC50; conditions: M-07e, 72 h, read-out: M07e
[28] = secondary HTS, 72 h, average of triplicate, read-out: EC50 MOLM-13
[29] = secondary HTS, 72 h, average of triplicate, read-out: EC50 MV4-11
[30] = secondary high-throughput screen, read-out: average effective concentration, MV4-11
[31] = secondary HTS, 72 h, average of triplicate, read-out: EC50 CHRF288-11
[32] = secondary HTS, 72 h, average of triplicate, read-out: EC50 M07e
[33] = secondary high-throughput screen, read-out: average effective concentration, ML-2
[34] = secondary HTS, 72 h, average of triplicate, read-out: EC50 U937
[35] = secondary high-throughput screen, read-out: average effective concentration, MOLM-13
[36] = HTS, secondary high-throughput screen, CMS, read-out: average effective concentration, CMS
[37] = secondary high-throughput screen, M07e, read-out: average effective concentration, M07e
[38] = secondary high-throughput screen, U937, read-out: average effective concentration, U937
[39] = HTS, secondary high-throughput screen, CHRF288-11, read-out: average effective concentration, CHRF288-11
[40] = secondary high-throughput screen, read-out: average effective concentration, CMK
[41] = secondary high-throughput screen

SMILES | pEC50 [2, 28] | pEC50 [3, 29] | pEC50 [3, 30] | pEC50 [4, 31] | pEC50 [7, 32] | pEC50 [8, 33] | pEC50 [9, 34] | pIC50 [10] | pIC50 [11] | pIC50 [12] | pIC50 [13] | pIC50 [14] | pIC50 [15] | pIC50 [16] | pIC50 [17] | pEC50 [2, 35] | pEC50 [6, 36] | pEC50 [7, 37] | pEC50 [9, 38] | pIC50 ([11]; Cell Titer Glo) | also measured
Nc1ccn([C@@H]2O[C@H](COP(=O)(O)OP(=O)(O)OP(=O)(O)O)[C@@H](O)[C@@H]2O)c(=O)n1 [Ara-CTP, cytarabine triphosphate] |  |  |  |  |  |  |  |  |  |  |  |  |  |  |  |  |  |  |  |  | share of the total intracellular accumulation [1]: 52–65%
CO[C@H]1C(=O)[C@]2(C)[C@@H](OC)C[C@H]3OC[C@@]3(OC(C)=O)[C@H]2[C@H](OC(=O)c2ccccc2)[C@]2(O)C[C@H](OC(=O)[C@H](O)[C@@H](NC(=O)OC(C)(C)C)c3ccccc3)C(C)=C1C2(C)C [Cabazitaxel, cabazitaxel] | 9.00 | 9.52 | 9.47 | 9.00 | 9.00 | 9.30 | 9.00 | 8.54 | 8.20 | 8.80 | 8.92 | 8.82 | 8.36 | 9.10 | < 4.30 |  |  |  |  |  | pEC50 ([5]; 72 h, read-out: EC50 CMK): 9.00; pEC50 ([6]; HTS, 72 h, read-out: EC50 CMS): 9.00; pEC50 ([8]; secondary HTS, 72 h, average of triplicate, read-out: EC50 ML2): 9.00; Median survival ([18]; CHRF288-11 xenograft, 5 mg kg−1 q4d, i.p.): 44 days; Median survival ([18]; CHRF288-11 xenograft, 5 mg kg−1 q4d, x 2 cycles, i.p.): 40 days; Median survival ([19]; 5 mg kg−1 q4d): 62 days; Median survival ([20]; 5 mg kg−1 q4d): 82 days; Median survival ([21]; mouse, in vivo, ip): 60 days; only tolerable dose [22]: 5 mg/kg
Nc1nc(Cl)nc2c1ncn2[C@@H]1O[C@H](CO)[C@@H](O)[C@@H]1F [Clofarabine, clofarabine, reference compound] | 7.30 | 6.82 |  | 6.43 | 8.00 |  | 7.05 | 6.48 |  | 6.76 | 7.43 | 7.15 | 7.05 | 7.25 |  | 7.33 | 7.74 | 7.89 | 7.06 | 7.10 | pEC50 ([5]; secondary HTS, 72 h, average of triplicate, read-out: EC50 CMK): 8.30; pEC50 ([6]; secondary HTS, 72 h, average of triplicate, read-out: EC50 CMS): 7.70
Nc1ccn([C@@H]2O[C@H](CO)[C@@H](O)[C@@H]2O)c(=O)n1 [Cytarabine, cytarabine] |  |  | 5.59 |  |  | 7.00 |  | 6.22 |  | 7.59 | 7.51 | 5.70 | 5.06 | 7.96 | 7.27 | 6.52 | 6.54 |  | 6.54 | 5.27 | pEC50 [4, 39]: 5.72; pEC50 [5, 40]: 6.49; Median survival ([18]; CHRF288-11-Luc+ model, low-dose 6.25 mg/kg once daily for 5 days for 3 weeks): 26 days; Median survival ([18]; CHRF288-11 xenograft, 50 mg kg−1 q4d, i.p.): 25 days; Median survival ([19]; 50 mg kg−1 q4d): 56 days; Median survival ([20]; 50 mg kg−1 q4d): 29 days; Median survival ([23]; 50 mg kg−1 daily x 5 days): 63 days; Median survival ([23]; 100 mg kg−1 daily x 5 days): 80 days; Median survival ([21]; Mll-PTD/wt:Flt3ITD/ITD primary transplants, 50 mg kg−1 q4d, i.p.): 50 days; Median survival [24]: 49 days; higher concentration of cytarabine giving nearly equivalent intracellular exposure to 1 µM gemcitabine ([25]; 10 µM): ~10 fold; uptake at 10 µM cytarabine compared to 1 µM cytarabine ([25]; 10 µM): 1.6–3.7 fold; uptake at 100 µM cytarabine compared to 1 µM cytarabine ([25]; 100 µM): 7–12 fold; triphosphate elimination α half-life [26]: 7 to 20 min; triphosphate elimination β half-life [26]: 2 to 3 h; pEC50 [27]: < 5.00
CC(=O)O[C@@]12CO[C@@H]1C[C@H](O)[C@@]1(C)C(=O)[C@H](O)C3=C(C)[C@@H](OC(=O)[C@H](O)[C@@H](NC(=O)OC(C)(C)C)c4ccccc4)C[C@@](O)([C@@H](OC(=O)c4ccccc4)[C@H]21)C3(C)C [Docetaxel, docetaxel, reference compound] |  |  | 9.00 |  |  |  |  | 7.97 | 7.70 | 8.82 | 8.66 | 8.52 | 8.49 | 8.68 |  | 9.00 |  | 9.00 | 9.00 |  | pEC50 [4, 39]: 6.30; pEC50 ([5]; read-out: average effective concentration, CMK): 9.00; pEC50 ([6]; HTS, read-out: average effective concentration, CMS): 8.36
Nc1nc(F)nc2c1ncn2[C@@H]1O[C@H](CO)[C@@H](O)[C@@H]1O [Fludarabine, fludarabine, reference compound] |  |  |  |  |  | < 5.00 |  | < 4.46 |  | 5.25 | 5.76 | < 4.82 | 5.38 | 7.51 |  |  | 6.89 | < 5.00 | < 5.00 | 7.19 | average effective concentration, MOLM-13 [2, 41]: Inactive; average effective concentration, MV4-11 [3, 41]: Inactive; average effective concentration, CHRF288-11 ([4]; secondary high-throughput screen, CHRF288-11): Inactive; pEC50 [5, 40]: 5.09
